Measured values published in patent publication EP1981504B1, “THIADIAZOLE DERIVATIVES FOR THE TREATMENT OF NEURO DEGENERATIVE DISEASES” (NV reMYND, priority 2006, dated 2007).
In brackets after ≈: the same amount, converted by molar mass.

Test system: M17-SYNwt cells
Experiment: α-synuclein cytotoxicity assay (LDH leakage from paraquat-treated α-synuclein over-expressing neuroblastoma cells)
Type: cell-based, human
Settings: paraquat 32 mM, 40 hours, LDH release; for EC50: Homo sapiens, Neuroblastoma cell; for %I: percent inhibition of synuclein cytotoxicity at most effective concentration of test compound, relative to untreated paraquat cells
Description: Subsequently, LDH activity was determined using Promega Cytotox 96 NonRadioactive cytotoxicity assay, (Cat. G1780) according the supplier's instructions.
This corresponds to the following equation: (LDHreleaseoftreatedparaquatcellsatnon-effectiveconcentrationoftestcmpd)−(LDHreleaseoftreatedparaquatcellsatmosteffectiveconcentrationoftestcmpd)/(LDHreleaseofuntreatedparaquatcells)−(LDHreleasecontrolcells)*100% [formula]
1,2,4-thiadazole compounds made according to the methods described herein were screened for activity using the α-synuclein cytotoxicity assay as described above. Dose responses were carried out on all compounds found to be active (10 point curves in duplicate).

Row | Compound | EC50 (10 point curves in duplicate) [µg/mL] | %I [%] | EC50 (µg/mL) (10 point curves in duplicate)
1 | Cc1ccc(Cc2nsc(N3CCN(C(=O)Cc4ccc(F)cc4)C(C)C3)n2)cc1 (centres unmarked) [Compound 3, 1-(4-fluorophenylacetyl)-4-[3-(4-methylbenzyl)-1,2,4-thiadiazol-5-yl]-2-methylpiperazine] | 2.2 (≈ 5.18 µM) | 76 | 
2 | Cc1ccc(C(=O)N2CCN(c3nc(Cc4ccc(F)cc4)ns3)CC2)cc1 [Compound 141, 1-(4-methylbenzoyl)-4-[3-(4-fluorobenzyl)-1,2,4-thiadiazol-5-yl]piperazine] | 0.49 (≈ 1.24 µM) | 75 | 
3 | CCc1ccccc1NC(=O)N1CCN(c2nc(Cc3ccc(F)cc3)ns2)CC1C (centres unmarked) [Compound 12, N-(2-ethylphenyl)-4-[3-(4-fluorobenzyl)-1,2,4-thiadiazol-5-yl]-2-methylpiperazine-1-carboxamide] | 0.89 (≈ 2.02 µM) | 92 | 
4 | 1-[4-bromophenylsulfonyl]-4-[3-(4-methylbenzyl)-1,2,4-thiadiazol-5-yl]-3-methylpiperazine [Compound 40] |  | 77 | 0,099855 µg/mL
5 | Cc1ccccc1NC(=O)N1CCN(c2nc(Cc3ccc(F)cc3)ns2)CC1C (centres unmarked) [Compound 10, N-(2-methylphenyl)-4-[3-(4-fluorobenzyl)-1,2,4-thiadiazol-5-yl]-2-methylpiperazine-1-carboxamide] | 0.6 (≈ 1.41 µM) | 72 | 
6 | CC1CN(c2nc(Cc3ccc(F)cc3)ns2)CCN1C(=O)c1ccccc1 (centres unmarked) [Compound 126, 1-benzoyl-4-[3-(4-fluorobenzyl)-1,2,4-thiadiazol-5-yl]-2-methylpiperazine] | 0.21 (≈ 0.53 µM) | 63 | 
7 | CCCCCc1ccc(C(=O)NCCN2CCN(c3nc(Cc4ccc(F)cc4)ns3)CC2)cc1 [Compound 94, 4-pentyl-N-{2-[4-[3-(4-fluorobenzyl)-1,2,4-thiadiazol-5-yl]piperazin-1-yl]ethyl}benzamide] | 0.35 (≈ 0.706 µM) | 90 | 
8 | CC1CN(c2nc(Cc3ccc(Cl)cc3)ns2)CCN1S(=O)(=O)c1cccc2ccccc12 (centres unmarked) [Compound 43, 1-[1-naphtylsulfonyl]-4-[3-(4-chlorobenzyl)-1,2,4-thiadiazol-5-yl]-2-methylpiperazine] | 0.89 (≈ 1.78 µM) | 35 | 
9 | CCCCS(=O)(=O)N1CCN(c2nc(Cc3ccc(C)cc3)ns2)CC1 [Compound 83, 1-(butylsulfonyl)-4-[3-(4-methylbenzyl)-1,2,4-thiadiazol-5-yl]piperazine] | 2.64 (≈ 6.69 µM) | 36 | 
10 | Cc1ccccc1C(=O)NCCN1CCN(c2nc(Cc3ccc(F)cc3)ns2)CC1 [Compound 99, 2-methyl-N-{2-[4-[3-(4-fluorobenzyl)-1,2,4-thiadiazol-5-yl]piperazin-1-yl]ethyl}benzamide] | 1.58 (≈ 3.59 µM) | 97 | 
11 | COc1cccc(Cc2nsc(N3CCN(C(=O)c4ccccc4)C(C)C3)n2)c1 (centres unmarked) [Compound 173, 1-benzoyl-4-[3-(3-methoxybenzyl)-1,2,4-thiadiazol-5-yl]-2-methylpiperazine] |  | 85 | 
12 | Cc1cccc(C)c1NC(=O)N1CCN(c2nc(Cc3ccc(F)cc3)ns2)CC1 [Compound 24, N-(2,6-dimethylphenyl)-4-[3-(4-fluorobenzyl)-1,2,4-thiadiazol-5-yl]piperazine-1-carboxamide] | 1.2 (≈ 2.82 µM) | 124 | 
13 | CCc1ccc(C(=O)N2CCN(c3nc(Cc4cccc(OC)c4)ns3)CC2C)cc1 (centres unmarked) [Compound 143, 1-(4-ethylbenzoyl)-4-[3-(3-methoxybenzyl)-1,2,4-thiadiazol-5-yl]-2-methylpiperazine] | 0.56 (≈ 1.28 µM) | 89 | 
14 | CC1CN(c2nc(Cc3ccc(F)cc3)ns2)CCN1C(=O)c1ccc2ccccc2c1 (centres unmarked) [Compound 132, 1-(2-naphthoyl)-4-[3-(4-fluorobenzyl)-1,2,4-thiadiazol-5-yl]-2-methylpiperazine] | 0.26 (≈ 0.582 µM) | 74 | 
15 | Cc1ccc(Cc2nsc(N3CCN(S(=O)(=O)c4ccc5ccccc5c4)CC3)n2)cc1 [Compound 65, 1-[2-naphtylsulfonyl]-4-[3-(4-methylbenzyl)-1,2,4-thiadiazol-5-yl]piperazine] | 0.0393 (≈ 0.0845 µM) | 78 | 
16 | Cc1ccc(S(=O)(=O)N2CCN(c3nc(Cc4ccc(Cl)cc4)ns3)CC2)cc1 [Compound 63, 1-[4-methylphenylsulfonyl]-4-[3-(4-chlorobenzyl)-1,2,4-thiadiazol-5-yl]piperazine] | 0.0807 (≈ 0.18 µM) | 83 | 
17 | CC1CN(c2nc(Cc3ccc(F)cc3)ns2)CCN1C(=O)c1ccccc1Cl (centres unmarked) [Compound 166, 1-(2-chlorobenzoyl)-4-[3-(4-fluorobenzyl)-1,2,4-thiadiazol-5-yl]-2-methylpiperazine] |  | 123 | 

Row | Compound | EC50 (10 point curves in duplicate) [µg/mL] | %I [%] | EC50 (µg/mL) (10 point curves in duplicate)
18 | CC1CN(c2nc(Cc3ccc(F)cc3)ns2)CCN1C(=O)C(Cl)c1ccccc1 (centres unmarked) [Compound 7, 1-[chloro(phenyl)acetyl]-4-[3-(4-fluorobenzyl)-1,2,4-thiadiazol-5-yl]-2-methylpiperazine] |  | 69 | 
19 | CCCCc1ccc(C(=O)NCCN2CCN(c3nc(Cc4ccc(F)cc4)ns3)CC2)cc1 [Compound 95, 4-butyl-N-{2-[4-[3-(4-fluorobenzyl)-1,2,4-thiadiazol-5-yl]piperazin-1-yl]ethyl}benzamide] | 0.38 (≈ 0.789 µM) | 78 | 
20 | CC1CN(c2nc(Cc3ccc(F)cc3)ns2)CCN1C(=O)Cc1ccccc1 (centres unmarked) [Compound 5, 1-phenylacetyl-4-[3-(4-fluorobenzyl)-1,2,4-thiadiazol-5-yl]-2-methylpiperazine] |  | 83 | 
21 | COc1ccc(S(=O)(=O)N2CCN(c3nc(Cc4ccccc4F)ns3)CC2)cc1 [Compound 194, 1-[4-methoxyphenylsulfonyl]-4-[3-(2-fluoro-benzyl)-1,2,4-thiadiazol-5-yl]piperazine] | 0.0012 (≈ 0.00268 µM) | 102 | 
22 | Cc1ccccc1C(=O)N1CCN(c2nc(Cc3ccc(F)cc3)ns2)CC1C (centres unmarked) [Compound 140, 1-(2-methylbenzoyl)-4-[3-(4-fluorobenzyl)-1,2,4-thiadiazol-5-yl]-2-methylpiperazine] | 0.45 (≈ 1.1 µM) | 56 | 
23 | Cc1ccc(Cc2nsc(N3CCN(C(=O)c4cccc(F)c4)CC3)n2)cc1 [Compound 162, 1-(3-flurorbenzoyl)-4-[3-(4-methylbenzyl)-1,2,4-thiadiazol-5-yl]piperazine] | 3.4 (≈ 8.58 µM) | 101 | 
24 | COc1ccc(S(=O)(=O)N2CCN(c3nc(Cc4ccc(Cl)cc4)ns3)CC2C)cc1 (centres unmarked) [Compound 51, 1-[4-methoxyphenylsulfonyl]-4-[3-(4-chlorobenzyl)-1,2,4-thiadiazol-5-yl]-2-methylpiperazine] | 0.00135 (≈ 0.00281 µM) | 94 | 
25 | CCCCCCc1ccc(C(=O)N2CCN(c3nc(Cc4ccc(C)cc4)ns3)CC2)cc1 [Compound 176, 1-(4-hexylbenzoyl)-4-[3-(4-methylbenzyl)-1,2,4-thiadiazol-5-yl]piperazine] |  | 77 | 
26 | CCCCCCc1ccc(C(=O)NCCN2CCN(c3nc(Cc4ccc(F)cc4)ns3)CC2)cc1 [Compound 96, 4-hexyl-N-{2-[4-[3-(4-fluorobenzyl)-1,2,4-thiadiazol-5-yl]piperazin-1-yl]ethyl}benzamide] | 0.8 (≈ 1.57 µM) | 72 | 
27 | CC1CN(c2nc(Cc3ccc(Cl)cc3)ns2)CCN1C(=O)/C=C/c1ccccc1 (centres unmarked) [Compound 86, 1-[(2E)-3-phenylprop-2-enoyl]-4-[3-(4-chlorobenzyl)-1,2,4-thiadiazol-5-yl]-2-methylpiperazine] | 1.13 (≈ 2.57 µM) | 81 | 
28 | CC1CN(c2nc(Cc3ccc(F)cc3)ns2)CCN1C(=O)Nc1cccc2ccccc12 (centres unmarked) [Compound 25, N-1-naphtyl-4-[3-(4-fluorobenzyl)-1,2,4-thiadiazol-5-yl]-2-methylpiperazine-1-carboxamide] | 1.69 (≈ 3.66 µM) | 97 | 
29 | Cc1ccc(Cc2nsc(N3CCN(C/C=C/c4ccccc4)CC3)n2)cc1 [Compound 91, 1-[3-phenylprop-2-enyl]-4-[3-(4-methylbenzyl)-1,2,4-thiadiazol-5-yl]piperazine] | 0.71 (≈ 1.82 µM) | 90 | 
30 | CC(C)(C)c1ccc(C(=O)N2CCN(c3nc(Cc4ccc(F)cc4)ns3)CC2)cc1 [Compound 180, 1-(4-tert-butylbenzoyl)-4-[3-(4-fluorobenzyl)-1,2,4-thiadiazol-5-yl]piperazine] |  | 62 | 
31 | CC1CN(c2nc(Cc3ccc(F)cc3)ns2)CCN1S(=O)(=O)c1ccc([N+](=O)[O-])cc1 (centres unmarked) [Compound 73, 1-[4-nitrophenylsulfonyl]-4-[3-(4-fluorobenzyl)-1,2,4-thiadiazol-5-yl]-2-methylpiperazine] |  | 33 | 
32 | CC1CN(c2nc(Cc3ccc(F)cc3)ns2)CCN1C(=O)c1cccc(F)c1 (centres unmarked) [Compound 179, 1-(3-fluorobenzoyl)-4-[3-(4-fluorobenzyl)-1,2,4-thiadiazol-5-yl]-2-methylpiperazine] |  | 68 | 
33 | CC(=O)Nc1ccc(S(=O)(=O)N2CCN(c3nc(Cc4ccc(C)cc4)ns3)CC2C)cc1 (centres unmarked) [Compound 48, 1-[4-acetamidophenylsulfonyl]-4-[3-(4-methylbenzyl)-1,2,4-thiadiazof-5-yl]-2-methylpiperazine] | 0.00844 (≈ 0.0174 µM) | 91 | 
34 | CC1CN(c2nc(Cc3ccc(F)cc3)ns2)CCN1S(=O)(=O)c1ccc(C(C)(C)C)cc1 (centres unmarked) [Compound 54, 1-[4-tert-butylphenylsulfonyl]-4-[3-(4-fluorobenzyl)-1,2,4-thiadiazol-5-yl]-2-methylpiperazine] |  | 60 | 
